Activity calls are given as the source filed them. No cut-off for these calls is given here.
Experiments:
Bacteria [1] = experiment: Inhibition of bacterial ImiS expressed in Escherichia coli BL21 (DE3) transformed cells assessed as potentiation of imipenem-induced antibacterial activity by measuring imipenem MIC after 20 hrs by broth microdilution assay (reference value: 1 ug/ml)
[2] = Inhibition of bacterial NDM1 expressed in Escherichia coli DH5R transformed cells using imipenem as substrate by UV spectrometry; set-up: species or system Bacteria
Bacteria [3] = experiment: Inhibition of bacterial ImiS expressed in Escherichia coli BL21 (DE3) transformed cells at 500 uM using imipenem as substrate by UV spectrometry
Bacteria [4] = experiment: Inhibition of bacterial NDM1 expressed in Escherichia coli BL21 (DE3) transformed cells assessed as potentiation of imipenem-induced antibacterial activity by measuring imipenem MIC after 20 hrs by broth microdilution assay (reference value: 16 ug/ml)
Bacteria [5] = experiment: Inhibition of bacterial metallo-beta-lactamase L1 expressed in Escherichia coli […] cells at 500 uM using imipenem as substrate by UV spectrometry
Escherichia coli = experiment: Antibacterial activity against Escherichia coli BL21(DE3) at 16 ug/ml after 20 hrs by broth microdilution assay; assay type: functional, organism-based
Bacteria [6] = experiment: Inhibition of bacterial NDM1 expressed in Escherichia coli DH5R transformed cells at 500 uM using imipenem as substrate by UV spectrometry
[7] = Inhibition of bacterial ImiS expressed in Escherichia coli BL21 (DE3) transformed cells using imipenem as substrate by UV spectrometry; set-up: species or system Bacteria
Bacteria [8] = experiment: Uncompetitive inhibition of bacterial ImiS expressed in Escherichia coli BL21 (DE3) transformed cells using imipenem as substrate after 5 mins by Lineweaver-Burk plot method
Bacteria [9] = experiment: Competitive inhibition of bacterial ImiS expressed in Escherichia coli BL21 (DE3) transformed cells using imipenem as substrate after 5 mins by Lineweaver-Burk plot method
Bacteria [10] = experiment: Competitive inhibition of bacterial NDM-1 expressed in Escherichia coli BL21 (DE3) transformed cells using imipenem as substrate after 5 mins by Lineweaver-Burk plot method
Bacteria [11] = experiment: Uncompetitive inhibition of bacterial NDM-1 expressed in Escherichia coli BL21 (DE3) transformed cells using imipenem as substrate after 5 mins by Lineweaver-Burk plot method

SMILES | MIC (Bacteria [1]) [µg/mL] | IC50 [2] [nM] | MIC (Bacteria [4]) [µg/mL] | IC50 [7] [nM] | inhibition (Bacteria [3]) | inhibition (Bacteria [5]) | Activity (Escherichia coli) | inhibition (Bacteria [6]) | Kiuc (Bacteria [8]) [nM] | Kic (Bacteria [9]) [nM] | Kic (Bacteria [10]) [nM] | Kiuc (Bacteria [11]) [nM]
O=C(CSc1nnc(-c2cccc([N+](=O)[O-])c2)s1)Nc1nc2ccc([N+](=O)[O-])cc2[nH]1 | 1 | 5100 | 8 | – | inactive | inactive | inactive | – | – | – | – | –
O=C(CSc1nnc(Cc2ccccc2)s1)Nc1nc2ccccc2o1 | 0.5 | – | 16 | 259000 | – | inactive | inactive | inactive | – | – | – | –
Nn1c(Cc2ccccc2)nnc1SCC(=O)Nc1nc2ccc([N+](=O)[O-])cc2[nH]1 | 1 | 730 | 4 | – | inactive | inactive | inactive | – | – | – | – | –
O=C(CSc1nnc(-c2cccc([N+](=O)[O-])c2)s1)Nc1nc2ccccc2o1 | 0.5 | – | 16 | 133000 | – | inactive | inactive | inactive | – | – | – | –
Nc1ccccc1-c1nnc(SCC(=O)Nc2nc3ccccc3[nH]2)s1 | 0.5 | – | 32 | 1200 | – | inactive | inactive | inactive | – | – | – | –
Nc1ccccc1-c1nnc(SCC(=O)Nc2nc3ccc([N+](=O)[O-])cc3[nH]2)s1 | 2 | 2500 | 8 | – | inactive | inactive | inactive | – | – | – | – | –
Nn1c(Cc2ccccc2)nnc1SCC(=O)Nc1nc2ccccc2[nH]1 | 0.5 | – | 16 | 270 | – | inactive | inactive | inactive | – | – | – | –
Nc1ccccc1-c1nnc(SCC(=O)Nc2nc3ccccc3[nH]2)o1 | 0.25 | – | 16 | 1700 | – | inactive | inactive | inactive | – | – | – | –
Nc1ccccc1-c1nnc(SCC(=O)Nc2nc3ccc([N+](=O)[O-])cc3[nH]2)[nH]1 | 1 | 170 | 4 | – | inactive | inactive | inactive | – | – | – | 550 | 310
Nn1c(Cc2cccs2)nnc1SCC(=O)Nc1nc2ccccc2[nH]1 | 0.25 | – | 16 | 77 | – | inactive | inactive | inactive | 80 | 110 | – | –
O=C(CSc1nnc(-c2ccccc2O)s1)Nc1nc2ccc([N+](=O)[O-])cc2[nH]1 | 1 | 6400 | 8 | – | inactive | inactive | inactive | – | – | – | – | –
Nn1c(Cc2ccccc2)nnc1SCC(=O)Nc1nc2ccccc2o1 | 0.5 | – | 16 | 29000 | – | inactive | inactive | inactive | – | – | – | –
O=C(CSc1nnc(-c2cccc([N+](=O)[O-])c2)s1)Nc1nc2ccccc2[nH]1 | 0.5 | – | 16 | 1800 | – | inactive | inactive | inactive | – | – | – | –

The remaining compounds from weak to strong by MIC (Bacteria [1]), led by results:

MIC (Bacteria [1]) [µg/mL] | IC50 [2] [nM] | MIC (Bacteria [4]) [µg/mL] | IC50 [7] [nM] | SMILES | inhibition (Bacteria [3]) | inhibition (Bacteria [5]) | Activity (Escherichia coli) | inhibition (Bacteria [6]) | Kiuc (Bacteria [8]) [nM] | Kic (Bacteria [9]) [nM] | Kic (Bacteria [10]) [nM] | Kiuc (Bacteria [11]) [nM]
1 | 500 | 4 | – | O=C(CSc1nnc(Cc2ccccc2)o1)Nc1nc2ccc([N+](=O)[O-])cc2[nH]1 | inactive | inactive | inactive | – | – | – | – | –
1 | 5900 | 8 | – | O=C(CSc1nnc(-c2ccccc2O)[nH]1)Nc1nc2ccc([N+](=O)[O-])cc2[nH]1 | inactive | inactive | inactive | – | – | – | – | –
1 | 1300 | 8 | – | O=C(CSc1nnc(-c2ccccc2O)o1)Nc1nc2ccc([N+](=O)[O-])cc2[nH]1 | inactive | inactive | inactive | – | – | – | – | –
1 | 1100 | 8 | – | Nc1ccccc1-c1nnc(SCC(=O)Nc2nc3ccc([N+](=O)[O-])cc3[nH]2)n1N | inactive | inactive | inactive | – | – | – | – | –
0.5 | – | 16 | 630 | O=C(CSc1nnc(-c2ccccc2O)o1)Nc1nc2ccccc2[nH]1 | – | inactive | inactive | inactive | – | – | – | –
0.5 | – | 32 | 384000 | O=C(CSc1nnc(Cc2ccccc2)o1)Nc1nc2ccccc2o1 | – | inactive | inactive | inactive | – | – | – | –
0.5 | – | 16 | 330 | O=C(CSc1nnc(-c2ccccc2O)s1)Nc1nc2ccccc2[nH]1 | – | inactive | inactive | inactive | – | – | – | –
0.5 | – | 16 | 940 | Nc1ccccc1-c1nnc(SCC(=O)Nc2nc3ccccc3[nH]2)[nH]1 | – | inactive | inactive | inactive | – | – | – | –
0.5 | – | 16 | 18000 | O=C(CSc1nnc(Cc2ccccc2)s1)Nc1nc2ccccc2[nH]1 | – | inactive | inactive | inactive | – | – | – | –
0.5 | – | 16 | 196000 | O=C(CSc1nnc(-c2ccccc2O)s1)Nc1nc2ccccc2o1 | – | inactive | inactive | inactive | – | – | – | –
0.5 | – | 16 | 53000 | Nn1c(Cc2cccs2)nnc1SCC(=O)Nc1nc2ccccc2o1 | – | inactive | inactive | inactive | – | – | – | –
0.25 | – | 16 | 390 | O=C(CSc1nnc(CCc2nnc(SCC(=O)Nc3nc4ccccc4[nH]3)s2)s1)Nc1nc2ccccc2[nH]1 | – | inactive | inactive | inactive | – | – | – | –
0.25 | – | 16 | 15 | Nc1ccccc1-c1nnc(SCC(=O)Nc2nc3ccccc3[nH]2)n1N | – | inactive | inactive | inactive | 11 | 22 | – | –
0.25 | – | 16 | 378000 | O=C(CSc1nnc(-c2cccc([N+](=O)[O-])c2)[nH]1)Nc1nc2ccccc2o1 | – | inactive | inactive | inactive | – | – | – | –
0.25 | – | 16 | 3000 | O=C(CSc1nnc(Cc2ccccc2)o1)Nc1nc2ccccc2[nH]1 | – | inactive | inactive | inactive | – | – | – | –

— ChEMBL document CHEMBL4184158, “Azolylthioacetamides as a potent scaffold for the development of metallo-β-lactamase inhibitors” (Bioorg Med Chem Lett, 2017)
